According to paper PMC10520499, “Next step in the development of mesoprogestins: the preclinical profile of EC313” (Frontiers in Endocrinology, 2023):

What was measured:
PR-B – NCoR = biological target: T1, PR-B – NCoR (Homo sapiens, UniProt P06401); experiment: PR-B – NCoR interaction, two-hybrid system; type: cell-based
T1 construct: expressed in transfected cells
Text: The active recruitment of the nuclear corepressor NCoR results in transcriptional inactivity of the PR. So, the potency of PR ligands to induce the interaction of PR with NCoR provides information on the antagonistic potency of the ligand. Therefore, the capacity of EC313 to induce the interaction of PR-B with the corepressor NCoR in comparison with reference ligands was studied. All test compounds except the receptor agonist Promegestone induced PR to interact with NCoR.
Figure 11 (A) PR-B interaction with NCoR using a two-hybrid assay. Dose response curve. […] (B) Liganded PR-Binteraction with c-SRC kinase. The data presented are from five independent experiments. Signals are represented as mean luminescence ± SD normalized to maximal promegestone activity equal to 100%.

T47D cells = experiment: Proliferation / arrest in Go/G1 in T47D cells; type: cell-based, human; parameters: key to Arrest in Go/G1: ↓/↑ - decreased/increased action of tested compounds.; ↓/↑ - decreased/increased action of tested compounds; conditions: Proliferation; T47D cells; statistical significance not always reached
[1] = test system: estrogen-primed endometrium of immature rabbits; experiment: McPhail assay, estrogen-primed rabbit endometrium; type: in vivo; conditions: for Score 2 for PR-agonistic activity / Score 2 for PR-antagonistic activity: dose giving McPhail score 2; for Score 2 for PR-antagonistic activity: concomitant progesterone (1 g/animal/day [sic] s.c.)
Description: The secretory transformation of estrogen-primed endometrium of immature rabbits indicates the strength of the progestagenic action on the endometrium of the chosen test compound. The simultaneous administration of test compounds with progesterone can indicate potential anti-progestagenic actions.
Female rabbits received daily s.c. injections of 5.0 µg 17β-Estradiol/per animal for 6 days leading to the proliferation of the endometrium. From day 7 to day 13 the animals received doses of vehicle, EC313 (1 to 30 mg/animal/day s.c) or progesterone. On day 14, the animals were sacrificed and the uteri were processed for histological evaluation and the secretory endometrial transformation was rated according to a modified McPhail score (1 – 4).
The rating scale ranges from 1 (no or very low secretory, transformation, or agonistic activity) to 4 (highest secretory, transformation, or agonistic activity). The McPhail score of 2 (median) was selected for the comparison. The antagonistic activity was measured by the concomitant administration of progesterone ([…] s.c.).

GR = biological target: T2, GR (Homo sapiens, UniProt P04150); experiment: GR transactivation (HELA, MMTV-LUC); type: cell-based; parameters: HELA cells line carrying endogenous glucocorticoid protein; endogenous in cells; host or cells: HELA, stably transfected with the reporter only; conditions: comparative transactivation profile; read-out: Potency, GR Antagonism
T2 sequence (P04150 1-777): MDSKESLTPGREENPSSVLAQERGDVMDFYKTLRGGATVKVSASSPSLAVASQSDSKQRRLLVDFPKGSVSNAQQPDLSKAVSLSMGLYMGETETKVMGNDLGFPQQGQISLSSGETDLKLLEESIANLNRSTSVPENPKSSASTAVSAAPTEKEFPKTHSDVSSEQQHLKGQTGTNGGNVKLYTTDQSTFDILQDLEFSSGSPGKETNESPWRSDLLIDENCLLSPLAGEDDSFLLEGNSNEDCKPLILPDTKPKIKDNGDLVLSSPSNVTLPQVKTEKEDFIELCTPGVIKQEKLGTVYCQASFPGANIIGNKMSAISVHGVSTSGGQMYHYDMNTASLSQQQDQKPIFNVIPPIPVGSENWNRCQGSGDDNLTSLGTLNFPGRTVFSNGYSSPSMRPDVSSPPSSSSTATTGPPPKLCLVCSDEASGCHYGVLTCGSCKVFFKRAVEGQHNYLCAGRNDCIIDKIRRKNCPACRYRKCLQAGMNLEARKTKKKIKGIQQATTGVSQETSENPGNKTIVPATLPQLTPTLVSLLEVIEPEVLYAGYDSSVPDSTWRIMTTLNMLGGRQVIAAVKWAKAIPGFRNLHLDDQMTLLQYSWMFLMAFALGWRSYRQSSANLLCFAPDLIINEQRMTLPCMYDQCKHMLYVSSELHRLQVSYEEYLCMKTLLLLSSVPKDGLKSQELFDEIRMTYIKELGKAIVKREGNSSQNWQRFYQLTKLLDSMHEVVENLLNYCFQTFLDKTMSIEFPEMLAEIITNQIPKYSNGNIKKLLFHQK
Description: HELA cells line carrying endogenous glucocorticoid protein were cultured in order to study gene expression on the transcriptional level under the influence of the tested compounds. The cells were transfected with reporter vector MMTV/LUC. To produce high protein overexpression, stable transfection was carried out. […] Agonist and antagonist properties of EC313 toward tested receptor GR were analyzed using luminescence detection.
In order to develop the transfection assay, plasmids were generated and isolated. Vector pGL4.36 coding the glucocorticoid receptor responsive element MMTV and firefly luciferase reporter vector [luc2P/Hygro] were used as a reporter system (pGL4.36-MMTV/LUC). The cells were transfected with reporter vector MMTV/LUC.
stable transfection with reporter vector was performed on a 6-well plate (0.5x10^6 cells per well) in culture medium (EMEM, 10% FBS, NEAA, sodium […], L-glutamine). Briefly, according to the transfection procedure, cells were passaged, and they grew in a culture medium containing an appropriate concentration of the antibiotic (Hygromycin 150 µg/mL). Resistance to Hygromycin gene, which had been transfected together with the reporter vector to the cells, only allowed positively transfected cells to grow in this medium. Therefore, growing cell clones were selected for further steps as stable transfectants.
After 24h incubation of cells with the tested compounds, luciferase activity was measured using VICTOR™ X Multilabel Plate Reader -Perkin Elmer.

Cyclin D1 promotor = experiment: Activation of Cyclin D1 promotor; type: cell-based, human; conditions: Other signal cascades
cycling guinea pigs = experiment: Ovulation inhibition in cycling guinea pigs; type: in vivo, guinea pig; conditions: cycle days 10-17
Description: Test compounds were administered once daily from cycle days 10-17 by s. c. injection using 0.2 mL vehicle (benzyl-benzoate/castor oil, ratio 1 + 4 v/v). The time of autopsy (day 18) was 24-48h after the expected ovulation at the end of the treatment cycle. This design permits the study of the effects of the tested compounds on the expected ovulation. Fresh CL were evidence of a recent ovulation.

T1 sequence (P06401 whole entry): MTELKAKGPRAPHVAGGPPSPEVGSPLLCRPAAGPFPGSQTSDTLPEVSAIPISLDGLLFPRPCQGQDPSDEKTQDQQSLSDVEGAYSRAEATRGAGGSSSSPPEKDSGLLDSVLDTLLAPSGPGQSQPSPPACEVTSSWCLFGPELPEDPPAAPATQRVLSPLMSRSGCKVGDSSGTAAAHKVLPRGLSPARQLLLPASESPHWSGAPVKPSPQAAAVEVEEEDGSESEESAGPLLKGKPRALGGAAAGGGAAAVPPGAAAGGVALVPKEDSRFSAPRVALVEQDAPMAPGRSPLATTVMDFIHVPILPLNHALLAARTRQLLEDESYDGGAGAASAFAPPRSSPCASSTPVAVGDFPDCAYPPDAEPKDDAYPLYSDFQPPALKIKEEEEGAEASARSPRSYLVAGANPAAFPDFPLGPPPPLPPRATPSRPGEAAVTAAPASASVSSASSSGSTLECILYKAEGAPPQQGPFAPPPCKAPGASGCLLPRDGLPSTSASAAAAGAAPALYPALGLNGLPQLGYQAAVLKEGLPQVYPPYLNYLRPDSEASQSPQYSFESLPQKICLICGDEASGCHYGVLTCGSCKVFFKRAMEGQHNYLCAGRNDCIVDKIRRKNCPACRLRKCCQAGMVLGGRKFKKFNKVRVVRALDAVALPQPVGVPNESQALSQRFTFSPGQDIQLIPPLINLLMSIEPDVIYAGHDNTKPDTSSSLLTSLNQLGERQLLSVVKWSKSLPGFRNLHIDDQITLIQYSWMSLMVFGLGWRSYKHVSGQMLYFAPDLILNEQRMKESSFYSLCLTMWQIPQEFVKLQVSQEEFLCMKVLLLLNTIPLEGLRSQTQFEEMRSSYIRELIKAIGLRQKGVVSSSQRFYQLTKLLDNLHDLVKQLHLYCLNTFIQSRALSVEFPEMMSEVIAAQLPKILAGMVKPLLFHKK
T1 sequence (O75376 whole entry partner): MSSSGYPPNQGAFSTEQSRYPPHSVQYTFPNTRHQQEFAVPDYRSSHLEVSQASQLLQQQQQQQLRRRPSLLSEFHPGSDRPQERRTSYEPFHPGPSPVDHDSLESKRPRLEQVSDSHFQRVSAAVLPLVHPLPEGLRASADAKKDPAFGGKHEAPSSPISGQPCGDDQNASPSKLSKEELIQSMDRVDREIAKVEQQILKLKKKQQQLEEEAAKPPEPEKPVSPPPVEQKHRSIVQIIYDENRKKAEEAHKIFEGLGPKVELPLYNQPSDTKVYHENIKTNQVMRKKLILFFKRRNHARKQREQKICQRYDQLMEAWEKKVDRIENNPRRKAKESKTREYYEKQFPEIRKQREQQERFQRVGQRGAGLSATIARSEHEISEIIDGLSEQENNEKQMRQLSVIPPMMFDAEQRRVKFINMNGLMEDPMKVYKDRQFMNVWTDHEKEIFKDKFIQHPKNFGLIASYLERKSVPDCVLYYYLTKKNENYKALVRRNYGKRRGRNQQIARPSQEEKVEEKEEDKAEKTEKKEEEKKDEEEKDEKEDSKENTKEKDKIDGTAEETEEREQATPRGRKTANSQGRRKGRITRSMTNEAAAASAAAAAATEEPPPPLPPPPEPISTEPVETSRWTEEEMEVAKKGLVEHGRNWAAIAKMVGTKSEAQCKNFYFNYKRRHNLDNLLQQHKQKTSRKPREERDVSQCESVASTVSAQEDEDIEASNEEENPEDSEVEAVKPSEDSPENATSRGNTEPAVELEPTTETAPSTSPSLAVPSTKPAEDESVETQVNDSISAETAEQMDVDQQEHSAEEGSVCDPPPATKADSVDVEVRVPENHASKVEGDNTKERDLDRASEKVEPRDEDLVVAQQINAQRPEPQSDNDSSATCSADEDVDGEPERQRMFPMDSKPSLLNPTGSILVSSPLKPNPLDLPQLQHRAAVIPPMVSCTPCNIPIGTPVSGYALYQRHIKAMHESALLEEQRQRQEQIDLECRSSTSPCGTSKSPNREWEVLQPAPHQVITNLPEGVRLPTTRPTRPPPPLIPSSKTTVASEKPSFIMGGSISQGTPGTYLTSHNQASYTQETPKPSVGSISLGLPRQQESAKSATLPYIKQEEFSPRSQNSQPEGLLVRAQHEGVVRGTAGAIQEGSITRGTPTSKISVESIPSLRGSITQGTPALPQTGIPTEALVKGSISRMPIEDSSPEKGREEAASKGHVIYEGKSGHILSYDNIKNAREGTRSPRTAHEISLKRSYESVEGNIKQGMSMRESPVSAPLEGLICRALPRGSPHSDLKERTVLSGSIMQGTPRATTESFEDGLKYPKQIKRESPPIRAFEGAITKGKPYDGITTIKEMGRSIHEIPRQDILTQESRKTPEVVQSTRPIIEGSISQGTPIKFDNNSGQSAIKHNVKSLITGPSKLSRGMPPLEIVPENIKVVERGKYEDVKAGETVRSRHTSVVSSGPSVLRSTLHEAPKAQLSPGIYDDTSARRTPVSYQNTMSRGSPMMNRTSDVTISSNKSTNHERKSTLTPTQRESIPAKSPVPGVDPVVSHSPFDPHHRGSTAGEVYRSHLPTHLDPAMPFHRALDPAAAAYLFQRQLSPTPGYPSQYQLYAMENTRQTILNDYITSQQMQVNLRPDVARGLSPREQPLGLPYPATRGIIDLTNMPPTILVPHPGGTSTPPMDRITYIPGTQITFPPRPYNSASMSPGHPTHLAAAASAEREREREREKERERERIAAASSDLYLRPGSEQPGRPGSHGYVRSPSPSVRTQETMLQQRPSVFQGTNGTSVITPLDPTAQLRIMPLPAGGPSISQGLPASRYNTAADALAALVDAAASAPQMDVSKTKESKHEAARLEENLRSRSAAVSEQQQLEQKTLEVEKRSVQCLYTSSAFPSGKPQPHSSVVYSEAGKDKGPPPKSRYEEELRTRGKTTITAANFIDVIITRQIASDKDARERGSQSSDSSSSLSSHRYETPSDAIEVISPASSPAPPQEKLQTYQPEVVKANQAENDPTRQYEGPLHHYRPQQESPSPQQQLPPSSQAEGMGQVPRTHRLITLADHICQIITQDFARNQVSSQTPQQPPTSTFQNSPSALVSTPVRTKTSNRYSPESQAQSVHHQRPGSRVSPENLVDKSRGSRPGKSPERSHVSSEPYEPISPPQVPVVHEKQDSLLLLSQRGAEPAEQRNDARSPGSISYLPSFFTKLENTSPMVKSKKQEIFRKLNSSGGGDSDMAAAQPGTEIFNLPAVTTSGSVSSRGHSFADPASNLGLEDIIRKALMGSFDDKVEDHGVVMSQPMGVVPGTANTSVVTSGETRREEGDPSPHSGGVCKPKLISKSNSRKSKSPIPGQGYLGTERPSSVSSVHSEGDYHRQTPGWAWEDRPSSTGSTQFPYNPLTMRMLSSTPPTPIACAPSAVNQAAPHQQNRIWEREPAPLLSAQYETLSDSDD

Row | Compound | Arrest in Go/G1 (T47D cells) | Score 2 for PR-agonistic activity [1] | Score 2 for PR-antagonistic activity [1] | Number of ovulations vs. number of inseminated females (cycling guinea pigs; 3.0 mg/animal/day s.c.) | Number of ovulations vs. number of inseminated females (cycling guinea pigs; 10.0 mg/animal/day s.c.) | other results
1 | COC[C@]1(OC)CC[C@H]2[C@@H]3CCC4=CC(=O)CCC4=C3[C@@H](c3ccc(/C=N/O)cc3)C[C@@]21C [Asoprisnil, reference compound] | ↑ | ~ 0.2 mg/animal/day s.c. | ~ 0.3 mg/animal/day s.c. | – | – | efficacy relative to Ulipristal acetate, NCoR interaction (PR-B – NCoR): 56%; induction of PR interaction with NCoR (PR-B – NCoR): limited ability to induce progesterone receptor interaction with NCoR; Quotient between antagonistic and agonistic action ([1]; McPhail score 2 doses): ~ 1.5; IC50 (GR): 1.23 µM
2 | C[C@]12C[C@H](c3ccc(-n4ccnc4)cc3)C3=C4CCC(=O)C=C4CCC3C1CC[C@@]2(O)C(F)(F)C(F)(F)F (stereo partly shown) [EC317] | ↑ | – | – | 0/6 | 0/6 | Activation of Cyclin D1 promotor (Cyclin D1 promotor): unclear*; Number of ovulations vs. number of inseminated females (cycling guinea pigs; 0.1 mg/animal/day s.c.): 2/3; Number of ovulations vs. number of inseminated females (cycling guinea pigs; 0.3 mg/animal/day s.c.): 3/3; Number of ovulations vs. number of inseminated females (cycling guinea pigs; 1.0 mg/animal/day s.c.): 0/3
3 | CC#C[C@]1(O)CC[C@H]2[C@@H]3CCC4=CC(=O)CCC4=C3[C@@H](c3ccc(N(C)C)cc3)C[C@@]21C [Mifepristone, reference compound] | ↑ | – | – | 2/5 | 0/3 | Number of ovulations vs. number of inseminated females (cycling guinea pigs; 1.0 mg/animal/day s.c.): 4/5
4 | CC(=O)[C@H]1CC[C@H]2[C@@H]3CCC4=CC(=O)CC[C@]4(C)[C@H]3CC[C@]12C [Progesterone] | – | ~ 0.1 mg/animal/day s.c. | n.a. “pure” agonist | – | – | –
5 | CCC(=O)[C@@]1(C)CC[C@H]2[C@@H]3CCC4=CC(=O)CCC4=C3CC[C@@]21C [Promegestone, reference compound] | ↓ | – | – | – | – | induction of PR interaction with NCoR (PR-B – NCoR): does not induce NCoR interaction
6 | C[C@]12C[C@H](c3ccc(S(C)(=O)=O)cc3)C3=C4CCC(=O)C=C4CC[C@H]3[C@@H]1CC[C@@]2(O)C(F)(F)C(F)(F)F [Vilaprisan, reference compound] | – | n.a.;”pure” antagonist | < 0.3 mg/animal/day s.c. | 0/5 | 0/4 | IC50 (GR): 0.629 µM
7 | Telapristone acetate [CDB 4124 Telapristone acetate, reference compound] | – | – | – | – | 1/3 | –
